# From patent US20250171437A1 (Agios Pharmaceuticals,Inc., priority 2022, published 2025)
# Target: T1, human PAH with the R408W mutation (A375 R408W cells) (Homo sapiens, UniProt P00439, R408W)
# T1 construct: expressed in transfected cells
# T1 sequence (P00439 1-452 R408W): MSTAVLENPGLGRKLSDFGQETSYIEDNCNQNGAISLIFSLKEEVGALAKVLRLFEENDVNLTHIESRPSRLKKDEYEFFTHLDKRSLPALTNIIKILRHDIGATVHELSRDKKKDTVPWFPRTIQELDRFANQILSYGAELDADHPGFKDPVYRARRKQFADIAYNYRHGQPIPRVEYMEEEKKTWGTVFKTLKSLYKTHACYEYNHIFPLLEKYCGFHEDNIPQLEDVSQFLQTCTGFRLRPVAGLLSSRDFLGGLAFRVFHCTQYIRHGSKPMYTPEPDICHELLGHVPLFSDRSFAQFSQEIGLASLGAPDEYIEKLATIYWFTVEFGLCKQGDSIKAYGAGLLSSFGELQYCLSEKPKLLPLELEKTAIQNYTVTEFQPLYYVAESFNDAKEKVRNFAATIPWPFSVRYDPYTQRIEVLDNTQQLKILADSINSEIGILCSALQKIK
# Experiment: Cell Based Phenylalanine Flux Assay
# Details: A375 R408W cells; 24 hrs with compound, then 20 μM sepiapterin and 800 μM 13C9,15N-Phenylalanine for 4 hours; 13C-Tyrosine by LC-MS; average where tested multiple times
# Procedure, shortened: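 A375 cells stably expressing human PAH R408W treated 24 h at 37° C with a 10-point 2-fold dose curve in duplicate, 0.5% DMSO. Then 20 μM sepiapterin and 800 μM 13C9,15N-Phe added for 4 h; 13C-Tyr in media measured by LC-MS to give AC50.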
row,Structure (SMILES),AC50 [nM]
1,"O=C(c1ocnc1C(F)F)N1CCc2[nH]cnc2[C@H]1c1nc2ccccc2o1 [Example 467, (S)-(4-(benzo[d]oxazol-2-yl)-6,7-dihydro-1H-imidazo[4,5-c]pyridin-5(4H)-yl)(4-(difluoromethyl)oxazol-5-yl)methanone]",≤ 500
2,"O=C(c1ocnc1CC(F)F)N1CCc2[nH]cnc2[C@H]1c1nc2cccc(F)c2o1 [Example 863, (S)-(4-(2,2-difluoroethyl)oxazol-5-yl)(4-(7-fluorobenzo[d]oxazol-2-yl)-6,7-dihydro-1H-imidazo[4,5-c]pyridin-5(4H)-yl)methanone]",≤ 500
3,"c1ccc2oc([C@@H]3c4nc[nH]c4CN3c3nc4ccccc4o3)nc2c1 (single isomer, unassigned) [Example 931]",1000 to 5000
4,"Cn1ccc(-c2nc(C(F)(F)F)c(C(=O)N3CCc4[nH]cnc4[C@@H]3c3nc4cc(F)ccc4o3)o2)n1 [Example 788, (R)-(4-(5-fluorobenzo[d]oxazol-2-yl)-6,7-dihydro-1H-imidazo[4,5-c]pyridin-5(4H)-yl)(2-(1-methyl-1H-pyrazol-3-yl)-4-(trifluoromethyl)oxazol-5-yl)methanone]",1000 to 5000
5,"O=C(c1cnn(CC(F)(F)F)c1C(F)F)N1CCc2[nH]cnc2[C@@H]1c1nc2cc(F)ccc2o1 [Example 184, (R)-(5-(difluoromethyl)-1-(2,2,2-trifluoroethyl)-1H-pyrazol-4-yl)(4-(5-fluorobenzo[d]oxazol-2-yl)-6,7-dihydro-1H-imidazo[4,5-c]pyridin-5(4H)-yl)methanone]",1000 to 5000
6,"CC(C)(O)C1CCN(c2ccc3c(C(=O)N4CCc5[nH]cnc5[C@@H]4c4nc5cccc(F)c5o4)cnn3c2)CC1 [Example 367, (R)-(4-(7-fluorobenzo[d]oxazol-2-yl)-6,7-dihydro-1H-imidazo[4,5-c]pyridin-5(4H)-yl)(6-(4-(2-hydroxypropan-2-yl)piperidin-1-yl)pyrazolo[1,5-a]pyridin-3-yl)methanone]",1000 to 5000
7,"O=C(c1cnco1)N1CCc2[nH]cnc2[C@@H]1c1nc2c(F)ccc(F)c2o1 [Example 484, (R)-(4-(4,7-difluorobenzo[d]oxazol-2-yl)-6,7-dihydro-1H-imidazo[4,5-c]pyridin-5(4H)-yl)(oxazol-5-yl)methanone]",1000 to 5000
8,"O=C(c1ccnn1C(F)F)N1CCc2[nH]cnc2[C@@H]1c1nc2ccccc2o1 [Example 564, (R)-(4-(benzo[d]oxazol-2-yl)-6,7-dihydro-1H-imidazo[4,5-c]pyridin-5(4H)-yl)(1-(difluoromethyl)-1H-pyrazol-5-yl)methanone]",1000 to 5000
9,"COc1cccc2nc([C@@H]3c4nc[nH]c4CCN3C(=O)c3ccnn3C3CC3)oc12 [Example 767, (S)-(1-cyclopropyl-1H-pyrazol-5-yl)(4-(7-methoxybenzo[d]oxazol-2-yl)-6,7-dihydro-1H-imidazo[4,5-c]pyridin-5(4H)-yl)methanone]",≤ 500
10,"Cn1cc(-c2nc(C(F)F)c(C(=O)N3CCc4[nH]cnc4[C@H]3c3nc4ccccc4o3)o2)cn1 [Example 760, (S)-(4-(benzo[d]oxazol-2-yl)-6,7-dihydro-1H-imidazo[4,5-c]pyridin-5(4H)-yl)(4-(difluoromethyl)-2-(1-methyl-1H-pyrazol-4-yl)oxazol-5-yl)methanone]",≤ 500
11,"O=C(c1oc(C2(O)CC2)nc1C(F)F)N1CCc2[nH]cnc2[C@@H]1c1nc2cc(F)ccc2o1 [Example 142, (R)-(4-(difluoromethyl)-2-(1-hydroxycyclopropyl)oxazol-5-yl)(4-(5-fluorobenzo[d]oxazol-2-yl)-6,7-dihydro-1H-imidazo[4,5-c]pyridin-5(4H)-yl)methanone]",1000 to 5000
12,"CN(C)c1ccc2c(C(=O)N3CCc4[nH]cnc4[C@@H]3c3nc4cc(F)ccc4o3)cnn2c1 [Example 92, (R)-(6-(dimethylamino)pyrazolo[1,5-a]pyridin-3-yl)(4-(5-fluorobenzo[d]oxazol-2-yl)-6,7-dihydro-1H-imidazo[4,5-c]pyridin-5(4H)-yl)methanone]",≥ 5000
13,"Cc1ccc2nc([C@H]3c4nc[nH]c4CCN3C(=O)c3ccnn3C(F)F)oc2c1 [Example 318, (R)-(1-(difluoromethyl)-1H-pyrazol-5-yl)(4-(6-methylbenzo[d]oxazol-2-yl)-6,7-dihydro-1H-imidazo[4,5-c]pyridin-5(4H)-yl)methanone]",500 to 1000
14,"CC(C)(C)c1ncc(C(=O)N2CCc3[nH]cnc3[C@@H]2c2nc3cc(F)ccc3o2)o1 [Example 22, (R)-(2-(tert-butyl)oxazol-5-yl)(4-(5-fluorobenzo[d]oxazol-2-yl)-6,7-dihydro-1H-imidazo[4,5-c]pyridin-5(4H)-yl)methanone]",1000 to 5000
15,"CC(C)(O)c1nc(C(F)F)c(C(=O)N2CCc3[nH]cnc3[C@@H]2c2nc3cc(Br)ccc3o2)o1 [Example 416, [(4R)-4-(5-bromo-1,3-benzoxazol-2-yl)-1,4,6,7-tetrahydroimidazo[4,5-c]pyridin-5-yl]-[4-(difluoromethyl)-2-(1-hydroxy-1-methyl-ethyl)oxazol-5-yl]methanone]",500 to 1000
16,"Cc1ccc(-c2nnc(C(=O)N3CCc4[nH]cnc4[C@@H]3c3nc4cc(F)ccc4o3)o2)nc1 [Example 125, (R)-(4-(5-fluorobenzo[d]oxazol-2-yl)-6,7-dihydro-1H-imidazo[4,5-c]pyridin-5(4H)-yl)(5-(5-methylpyridin-2-yl)-1,3,4-oxadiazol-2-yl)methanone]",1000 to 5000
17,"O=C(c1nnc(-c2ccccn2)o1)N1CCc2[nH]cnc2[C@@H]1c1nc2c(F)ccc(F)c2o1 [Example 519, (R)-(4-(4,7-difluorobenzo[d]oxazol-2-yl)-6,7-dihydro-1H-imidazo[4,5-c]pyridin-5(4H)-yl)(5-(pyridin-2-yl)-1,3,4-oxadiazol-2-yl)methanone]",500 to 1000
18,"Cc1ccc2nc([C@@H]3c4nc[nH]c4CCN3C(=O)c3nnc(-c4ncccc4F)o3)oc2c1 [Example 679, (S)-(5-(3-fluoropyridin-2-yl)-1,3,4-oxadiazol-2-yl)(4-(6-methylbenzo[d]oxazol-2-yl)-6,7-dihydro-1H-imidazo[4,5-c]pyridin-5(4H)-yl)methanone]",500 to 1000
19,"O=C(c1cnc(-c2ccccn2)s1)N1CCc2[nH]cnc2[C@H]1c1nc2cc(F)ccc2o1 [Example 5, (S)-(4-(5-fluorobenzo[d]oxazol-2-yl)-6,7-dihydro-1H-imidazo[4,5-c]pyridin-5(4H)-yl)(2-(pyridin-2-yl)thiazol-5-yl)methanone]",≤ 500
20,"CC(C)(O)c1nc(C(F)F)c(C(=O)N2CCc3[nH]cnc3[C@@H]2c2nc3cccc(Br)c3o2)o1 [Example 459, (R)-(4-(7-bromobenzo[d]oxazol-2-yl)-6,7-dihydro-1H-imidazo[4,5-c]pyridin-5(4H)-yl)(4-(difluoromethyl)-2-(2-hydroxypropan-2-yl)oxazol-5-yl)methanone]",≤ 500
21,"O=C(c1oc(-c2ccncc2)nc1C(F)F)N1CCc2[nH]cnc2[C@H]1c1nc2cc(F)ccc2o1 [Example 421, (S)-(4-(difluoromethyl)-2-(pyridin-4-yl)oxazol-5-yl)(4-(5-fluorobenzo[d]oxazol-2-yl)-6,7-dihydro-1H-imidazo[4,5-c]pyridin-5(4H)-yl)methanone]",≤ 500
22,"COc1ccc(-c2nnc(C(=O)N3CCc4[nH]cnc4[C@@H]3c3nc4cc(F)ccc4o3)o2)nc1 [Example 441, (R)-(4-(5-fluorobenzo[d]oxazol-2-yl)-6,7-dihydro-1H-imidazo[4,5-c]pyridin-5(4H)-yl)(5-(5-methoxypyridin-2-yl)-1,3,4-oxadiazol-2-yl)methanone]",1000 to 5000
23,"O=C(c1nnc(-c2cc(C(F)(F)F)ccn2)o1)N1CCc2[nH]cnc2[C@H]1c1nc2cc(F)ccc2o1 [Example 122, [(4S)-4-(5-fluoro-1,3-benzoxazol-2-yl)-1,4,6,7-tetrahydroimidazo[4,5-c]pyridin-5-yl]-[5-[4-(trifluoromethyl)-2-pyridyl]-1,3,4-oxadiazol-2-yl]methanone]",≤ 500

# Same assay, conditions: A375 cells expressing R408W PAH; 24 hrs with compound, then 20 μM sepiapterin and 800 μM 13C9,15N-Phenylalanine for 4 hours; 13C-Tyrosine by LC-MS; average where tested multiple times
row,Structure (SMILES),AC50 [nM]
1,Cc1nc(N2CCC(F)CC2)oc1C(=O)N1CCc2[nH]cnc2C1c1nc2cc(F)ccc2o1 (centres unmarked),≥ 5000
2,CC(C)(O)c1cc(C(=O)N2CCc3[nH]cnc3C2c2nc3c(F)cccc3o2)no1 (centres unmarked),≥ 5000
3,CC(C)(O)c1ncc(C(=O)N2CCc3[nH]cnc3C2c2nc3c(F)c(F)ccc3o2)o1 (centres unmarked),1000 to 5000
4,Cc1nc(C(C)O)oc1C(=O)N1CCc2[nH]cnc2C1c1nc2c(F)cccc2o1 (centres unmarked),1000 to 5000
5,"NCCc1ccc2c(C(=O)N3CCc4[nH]cnc4C3c3nc4cc(F)ccc4o3)cnn2c1 (single isomer, unassigned) [4S enantiomer of 2-{3-[4-(5-fluoro-1,3-benzoxazol-2-yl)-1H,4]",≥ 5000
6,Cc1nc(C(C)O)oc1C(=O)N1CCc2[nH]cnc2C1c1nc2ccc(F)cc2o1 (centres unmarked),1000 to 5000
7,Cc1ccc2oc(C3c4nc[nH]c4CCN3C(=O)c3nnc(C(C)(C)O)o3)nc2c1 (centres unmarked),1000 to 5000
8,Cc1ncoc1C(=O)N1CC2(CC2)c2[nH]cnc2C1c1nc2cc(F)ccc2o1 (centres unmarked),≥ 5000
9,COCc1ccc2c(C(=O)N3CCc4[nH]cnc4C3c3nc4ccc(C)cc4o3)cnn2c1 (centres unmarked),≥ 5000
